Results reported in ChEMBL document CHEMBL1201861, “Genomics of Drug Sensitity in Cancer screening data, Wellcome Trust Sanger Institute”.

Experiments:
[1] = test system: ECC10; test: cells; format: functional, cell-based, Homo sapiens;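 note: growth inhibition of ECC10 cells, read out by a cell viability assay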
Description: SANGER: Inhibition of human ECC10 cell growth in a cell viability assay.

[2] = test system: NBsusSR; test: cells; format: functional, cell-based, Homo sapiens;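 note: growth inhibition of the human cell line, read out with a cell viability assay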
Description: SANGER: Inhibition of human NBsusSR cell growth in a cell viability assay.

[3] = test system: NCI-H1666; test: cells; format: functional, cell-based, Homo sapiens;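 note: growth inhibition of the cell line, read out with a cell viability assay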
Description: SANGER: Inhibition of human NCI-H1666 cell growth in a cell viability assay.

[4] = test system: RH-18; test: cells; format: functional, cell-based, Homo sapiens;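 note: growth inhibition of human RH-18 cells, read out with a cell viability assay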
Description: SANGER: Inhibition of human RH-18 cell growth in a cell viability assay.

[5] = test system: SW900; test: cells; format: functional, cell-based, Homo sapiens;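 note: IC50 is the concentration that inhibits SW900 cell growth, measured by a cell viability assay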
Description: SANGER: Inhibition of human SW900 cell growth in a cell viability assay.

[6] = test system: BALL-1; test: cells; format: functional, cell-based, Homo sapiens;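 note: growth inhibition of BALL-1 cells, read out with a cell viability assay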
Description: SANGER: Inhibition of human BALL-1 cell growth in a cell viability assay.

[7] = test system: TGBC11TKB; test: cells; format: functional, cell-based, Homo sapiens;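 note: growth inhibition of human TGBC11TKB cells, measured by a cell viability assay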
Description: SANGER: Inhibition of human TGBC11TKB cell growth in a cell viability assay.

[8] = test system: ECC12; test: cells; format: functional, cell-based; conditions: Homo sapiens
Description: SANGER: Inhibition of human ECC12 cell growth in a cell viability assay.

[9] = test system: EW-12; test: SANGER: Inhibition of human EW-12 cell growth in a cell viability assay.; format: functional, cell-based
[10] = test system: NCI-H128; test: SANGER: Inhibition of human NCI-H128 cell growth in a cell viability assay.; format: functional, cell-based
[11] = test system: NCI-H2107; test: SANGER: Inhibition of human NCI-H2107 cell growth in a cell viability assay.; format: functional, cell-based
[12] = test system: CP67-MEL; test: SANGER: Inhibition of human CP67-MEL cell growth in a cell viability assay.; format: functional, cell-based
[13] = test system: KP-N-RT-BM-1; test: SANGER: Inhibition of human KP-N-RT-BM-1 cell growth in a cell viability assay.; format: functional, cell-based
[14] = test system: DV-90; test: cells; format: functional, cell-based, Homo sapiens;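 note: Read-out is a viability assay, with IC50 reflecting the drop in DV-90 cell growth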
Description: SANGER: Inhibition of human DV-90 cell growth in a cell viability assay.

[15] = test system: EW-7; test: SANGER: Inhibition of human EW-7 cell growth in a cell viability assay.; format: functional, cell-based
[16] = test system: MES-SA; test: cells; format: functional, cell-based, Homo sapiens;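 note: growth inhibition of human MES-SA cells, read out with a cell viability assay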
Description: SANGER: Inhibition of human MES-SA cell growth in a cell viability assay.

[17] = test system: NCI-H1618; test: cells; format: functional, cell-based, Homo sapiens;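 note: growth inhibition of human NCI-H1618 cells, measured by a cell viability assay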
Description: SANGER: Inhibition of human NCI-H1618 cell growth in a cell viability assay.

[18] = test system: NCI-H1734; test: cells; format: functional, cell-based, Homo sapiens;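 note: growth inhibition of human NCI-H1734 cells, read out with a cell viability assay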
Description: SANGER: Inhibition of human NCI-H1734 cell growth in a cell viability assay.

[19] = test system: RT-4; test: SANGER: Inhibition of human RT4 cell growth in a cell viability assay.; format: functional, cell-based
[20] = test system: SK-CO-1; test: cells; format: functional, cell-based, Homo sapiens;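 note: growth inhibition of SK-CO-1 cells, determined by a viability readout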
Description: SANGER: Inhibition of human SK-CO-1 cell growth in a cell viability assay.

[21] = test system: SNG-M; test: cells; format: functional, cell-based, Homo sapiens
Description: SANGER: Inhibition of human SNG-M cell growth in a cell viability assay.

[22] = test system: SNU-475; test: cells; format: functional, cell-based, Homo sapiens
Description: SANGER: Inhibition of human SNU-475 cell growth in a cell viability assay.

[23] = test system: C-4-II; test: SANGER: Inhibition of human C-4-II cell growth in a cell viability assay.; format: functional, cell-based
[24] = test system: TT; test: cells; format: functional, cell-based, Homo sapiens
Description: SANGER: Inhibition of human TT cell growth in a cell viability assay.

[25] = test system: CHP-134; test: SANGER: Inhibition of human CHP-134 cell growth in a cell viability assay.; format: functional, cell-based

CISPLATIN
IC50 ([1]; ecc10): 258 µM
IC50 ([2]; nbsussr): 1.33 µM
IC50 ([3]; nci-h1666): 56.5 µM
IC50 ([4]; rh-18): 353 µM
IC50 ([5]; sw900): 28.9 µM
IC50 ([6]; ball-1): 75.9 µM
IC50 ([7]; tgbc11tkb): 29.4 µM

CC[C@H](CO)Nc1nc(NCc2ccccc2)c2ncn(C(C)C)c2n1 [SELICICLIB]
IC50 [8]: > 16 µM
IC50 [9]: > 16 µM
IC50 [10]: > 16 µM
IC50 [11]: > 16 µM

CC(=O)O[C@H]1C(=O)[C@@]2(C)[C@H]([C@H](OC(=O)c3ccccc3)[C@]3(O)C[C@H](OC(=O)[C@H](O)[C@@H](NC(=O)c4ccccc4)c4ccccc4)C(C)=C1C3(C)C)[C@]1(OC(C)=O)CO[C@@H]1C[C@@H]2O [PACLITAXEL]
IC50 [12]: 0.0681 µM
IC50 [9]: > 0.102 µM
IC50 [13]: > 0.102 µM
IC50 [10]: > 0.102 µM
IC50 [11]: > 0.102 µM

Cc1cn(-c2cc(NC(=O)c3ccc(C)c(Nc4nccc(-c5cccnc5)n4)c3)cc(C(F)(F)F)c2)cn1 [NILOTINIB]
IC50 ([1]; Homo sapiens, ECC10): > 2 µM
IC50 ([2]; Homo sapiens, NBsusSR): > 2 µM
IC50 ([3]; Homo sapiens, NCI-H1666): > 2 µM
IC50 ([4]; Homo sapiens, Rh18): > 2 µM
IC50 ([5]; Homo sapiens, SW900): > 2 µM
IC50 ([6]; Homo sapiens, BALL-1): > 2 µM
IC50 ([7]; Homo sapiens, TGBC11TKB): > 2 µM

CN(C)C(=N)NC(=N)N [METFORMIN]
IC50 ([1]; Homo sapiens, ECC10): 2280 µM
IC50 ([2]; Homo sapiens, NBsusSR): 9190 µM
IC50 ([5]; Homo sapiens, SW900): 19300 µM
IC50 ([6]; Homo sapiens, BALL-1): > 20000 µM
IC50 ([7]; Homo sapiens, TGBC11TKB): > 20000 µM

O=C(O)c1ccc(-c2c[nH]c3ncc(-c4ccccc4)cc23)cc1C1CCCC1 [GSK-650394]
IC50 ([14]; Homo sapiens, DV-90): > 16 µM
IC50 ([15]; Homo sapiens, EW-7): > 16 µM
IC50 ([16]; Homo sapiens, MES-SA): 5.56 µM
IC50 ([17]; Homo sapiens, NCI-H1618): > 16 µM
IC50 ([18]; Homo sapiens, NCI-H1734): > 16 µM
IC50 ([19]; Homo sapiens, RT-4): > 16 µM
IC50 ([20]; Homo sapiens, SK-CO-1): > 16 µM
IC50 ([21]; Homo sapiens, SNG-M): 1.8 µM
IC50 ([22]; Homo sapiens, SNU-475): > 16 µM
IC50 ([23]; Homo sapiens, C-4-II): 13.9 µM
IC50 ([24]; Homo sapiens, TT): > 16 µM

CCN(CC)CCNC(=O)c1c(C)[nH]c(/C=C2\C(=O)Nc3ccc(F)cc32)c1C [SUNITINIB]
IC50 [12]: > 8 µM
IC50 [9]: > 8 µM
IC50 [13]: > 8 µM
IC50 [10]: > 8 µM
IC50 [11]: > 8 µM

BLEOMYCIN
IC50 ([14]; dv-90): 182 µM
IC50 ([15]; ew-7): 3.06 µM
IC50 ([16]; mes-sa): 1.67 µM
IC50 ([17]; nci-h1618): 5.99 µM
IC50 ([18]; nci-h1734): 0.0174 µM
IC50 ([19]; rt-4): 0.00586 µM
IC50 ([20]; sk-co-1): 0.247 µM
IC50 ([21]; sng-m): 0.831 µM
IC50 ([22]; snu-475): 67.5 µM
IC50 ([23]; c-4-ii): 0.381 µM
IC50 ([24]; tt): 59.2 µM

Cc1ccc(-c2c(C(=O)CCl)n(CCCO)c3ncnc(N)c23)cc1
IC50 [12]: > 4 µM
IC50 [9]: > 4 µM
IC50 [13]: 2.51 µM
IC50 [10]: 3.1 µM
IC50 [11]: > 4 µM

CCN(CC)CCCCNc1ncc2cc(-c3cc(OC)cc(OC)c3)c(NC(=O)NC(C)(C)C)nc2n1 [PD-173074]
IC50 ([1]; Homo sapiens, ECC10): 0.339 µM
IC50 ([2]; Homo sapiens, NBsusSR): > 2 µM
IC50 ([3]; Homo sapiens, NCI-H1666): > 2 µM
IC50 ([4]; Homo sapiens, Rh18): > 2 µM
IC50 ([5]; Homo sapiens, SW900): > 2 µM
IC50 ([6]; Homo sapiens, BALL-1): > 2 µM
IC50 ([7]; Homo sapiens, TGBC11TKB): > 2 µM
IC50 [25]: > 2 µM

OCCCNc1cc(-c2ccnc(Nc3cccc(Cl)c3)n2)ccn1
IC50 [12]: 0.052 µM
IC50 [9]: > 0.256 µM
IC50 [13]: 0.148 µM
IC50 [10]: > 0.256 µM
IC50 [11]: 0.135 µM

CCC/C=C/C=C/C(=O)O[C@H]1/C(=C/C(=O)OC)C[C@H]2C[C@H]([C@@H](C)O)OC(=O)C[C@H](O)C[C@@H]3C[C@H](OC(C)=O)C(C)(C)[C@](O)(C[C@@H]4C/C(=C/C(=O)OC)C[C@H](/C=C/C(C)(C)[C@]1(O)O2)O4)O3 [BRYOSTATIN 1]
IC50 ([14]; Homo sapiens, DV-90): > 0.008 µM
IC50 ([15]; Homo sapiens, EW-7): > 0.008 µM
IC50 ([16]; Homo sapiens, MES-SA): > 0.008 µM
IC50 ([17]; Homo sapiens, NCI-H1618): > 0.008 µM
IC50 ([18]; Homo sapiens, NCI-H1734): > 0.008 µM
IC50 ([19]; Homo sapiens, RT-4): > 0.008 µM
IC50 ([20]; Homo sapiens, SK-CO-1): > 0.008 µM
IC50 ([21]; Homo sapiens, SNG-M): > 0.008 µM
IC50 ([22]; Homo sapiens, SNU-475): > 0.008 µM
IC50 ([23]; Homo sapiens, C-4-II): > 0.008 µM
IC50 ([24]; Homo sapiens, TT): > 0.008 µM

CC(C)CCN1c2nc(Nc3cc(F)c(O)c(F)c3)ncc2N(C)C(=O)C1C (configuration not stated)
IC50 ([1]; Homo sapiens, ECC10): 0.701 µM
IC50 ([2]; Homo sapiens, NBsusSR): 1.83 µM
IC50 ([3]; Homo sapiens, NCI-H1666): > 5 µM
IC50 ([4]; Homo sapiens, Rh18): > 5 µM
IC50 ([5]; Homo sapiens, SW900): > 5 µM
IC50 ([6]; Homo sapiens, BALL-1): > 5 µM
IC50 ([7]; Homo sapiens, TGBC11TKB): > 5 µM
IC50 [25]: 3.49 µM

N[C@@H](CSC(c1ccccc1)(c1ccccc1)c1ccccc1)C(=O)O [S-TRITYL-L-CYSTEINE]
IC50 [12]: 2.39 µM
IC50 [9]: > 5.12 µM
IC50 [13]: > 5.12 µM
IC50 [10]: > 5.12 µM
IC50 [11]: > 5.12 µM
